# Measurements as given in the supplement of paper PMC10307832.
# Experiments:
# Test in all cases: relative viability (nuclei count vs DMSO), 5 days (fraction); higher = more cells survive
# AZD5582 + Foretinib = compound: C[C@@H](C(=O)N[C@@H](C1CCCCC1)C(=O)N2CCC[C@H]2C(=O)N[C@@H]3[C@@H](CC4=CC=CC=C34)OCC#CC#CCO[C@@H]5CC6=CC=CC=C6[C@@H]5NC(=O)[C@@H]7CCCN7C(=O)[C@H](C8CCCCC8)NC(=O)[C@H](C)NC)NC [AZD5582] + COc1cc2c(Oc3ccc(NC(=O)C4(C(=O)Nc5ccc(F)cc5)CC4)cc3F)ccnc2cc1OCCCN1CCOCC1 [Foretinib] (partner 0.25 µM)
# How it was run: (§1)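 Lung cancer cell lines were seeded in 1536-well plates and dosed by pin tool the next day, with either a single drug or a fixed anchor-drug dose combined with five library-drug doses (not always all listed) spaced in √10 steps. Five days later, one step fixed the cells and stained their nuclei (final 0.05% Triton X-100, 1% formaldehyde, 1 ug/ml Hoechst), and nuclei were counted on 4× images. Relative viability is the nuclei count in treated wells divided by the count in vehicle wells, and each value is the median of duplicate plates.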
# AZD5582 + Lapatinib = compound: C[C@@H](C(=O)N[C@@H](C1CCCCC1)C(=O)N2CCC[C@H]2C(=O)N[C@@H]3[C@@H](CC4=CC=CC=C34)OCC#CC#CCO[C@@H]5CC6=CC=CC=C6[C@@H]5NC(=O)[C@@H]7CCCN7C(=O)[C@H](C8CCCCC8)NC(=O)[C@H](C)NC)NC [AZD5582] + CS(=O)(=O)CCNCc1ccc(-c2ccc3ncnc(Nc4ccc(OCc5cccc(F)c5)c(Cl)c4)c3c2)o1 [Lapatinib] (partner 2 µM)
# How it was run: as §1
# Temozolomide + OSI-027 = compound: Cn1nnc2c(C(N)=O)ncn2c1=O [Temozolomide] + COc1cccc2cc(-c3nc([C@H]4CC[C@H](C(=O)O)CC4)n4ncnc(N)c34)[nH]c12 [OSI-027] (partner 0.5 µM)
# How it was run: as §1
# Temozolomide + Olaparib = compound: Cn1nnc2c(C(N)=O)ncn2c1=O [Temozolomide] + O=C(c1cc(Cc2n[nH]c(=O)c3ccccc23)ccc1F)N1CCN(C(=O)C2CC2)CC1 [Olaparib] (partner 8 µM)
# How it was run: as §1
Cell Line,relative viability (AZD5582 + Foretinib; first compound 0.001581 µM),relative viability (AZD5582 + Foretinib; first compound 0.005 µM),relative viability (AZD5582 + Foretinib; first compound 0.01581 µM),relative viability (AZD5582 + Foretinib; first compound 0.05 µM),relative viability (AZD5582 + Lapatinib; first compound 0.001581 µM),relative viability (AZD5582 + Lapatinib; first compound 0.005 µM),relative viability (AZD5582 + Lapatinib; first compound 0.01581 µM),relative viability (AZD5582 + Lapatinib; first compound 0.05 µM),relative viability (Temozolomide + OSI-027; first compound 0.2 µM),relative viability (Temozolomide + OSI-027; first compound 0.6325 µM),relative viability (Temozolomide + OSI-027; first compound 2 µM),relative viability (Temozolomide + OSI-027; first compound 6.325 µM),relative viability (Temozolomide + OSI-027; first compound 20 µM),relative viability (Temozolomide + Olaparib; first compound 0.2 µM),relative viability (Temozolomide + Olaparib; first compound 0.6325 µM),relative viability (Temozolomide + Olaparib; first compound 2 µM),relative viability (Temozolomide + Olaparib; first compound 6.325 µM),relative viability (Temozolomide + Olaparib; first compound 20 µM)
201T,1.09,1.43,1.12,1.45,1.03,1.16,1.05,1.2,0.77,0.716,0.583,0.769,0.794,0.843,0.891,0.884,0.809,0.742
A549,0.821,1.13,0.938,1.14,0.896,0.983,0.898,0.851,–,–,–,–,–,0.358,0.344,0.345,0.17,0.117
A-427,0.986,0.881,1.09,0.769,0.865,0.996,0.942,0.831,0.481,0.4,0.507,0.365,0.299,0.681,0.729,0.672,0.47,0.325
ABC-1,0.875,1.11,1.05,0.852,0.932,1.19,1.01,1.44,0.554,0.513,0.564,0.517,0.585,0.921,0.673,1.09,0.85,0.696
BEN,0.634,0.751,0.627,0.415,0.478,0.67,0.764,0.417,0.326,0.289,0.296,0.283,0.306,0.891,1.05,1.21,0.736,0.401
CAL-12T,0.821,0.772,1.06,0.732,0.293,0.434,0.382,0.326,0.728,0.712,0.914,0.608,0.657,0.865,0.754,0.775,0.697,0.606
COR-L23,0.963,0.887,0.87,1.1,0.982,1.08,1.07,1.1,1.01,0.714,0.766,0.814,0.652,0.374,0.377,0.318,0.257,0.189
COR-L 105,1.02,1.32,0.888,1.16,0.351,0.424,0.315,0.421,0.476,0.781,0.735,0.742,0.303,0.585,0.577,0.636,0.661,0.693
Calu-6,0.695,0.523,0.826,0.437,0.626,0.662,1.14,0.568,–,–,–,–,–,0.787,0.603,0.6,0.484,0.259
ChaGo-K-1,0.882,0.9,0.83,1.1,–,–,–,–,0.623,0.543,0.685,0.508,0.554,0.437,0.417,0.4,0.315,0.228
EBC-1,0.098,0.101,0.11,0.107,0.187,0.226,0.193,0.255,–,–,–,–,–,0.765,0.663,0.795,0.666,0.5
EKVX,0.691,0.932,0.553,0.612,0.207,0.209,0.169,0.199,0.513,0.669,0.555,0.686,0.591,–,0.735,0.79,0.79,0.479
EMC-BAC-2,0.867,0.809,1.02,0.412,0.782,0.903,0.865,0.564,0.454,0.355,0.369,0.396,0.419,0.667,0.504,0.455,0.367,0.271
EPLC-272H,0.0672,–,0.546,0.0632,0.313,0.16,0.573,0.11,0.257,0.279,0.295,0.291,0.216,1.13,0.739,0.833,0.914,0.49
H3255,0.868,0.796,0.741,0.772,0.249,0.284,0.208,0.216,–,0.656,0.606,0.569,0.208,–,0.554,0.565,0.477,0.345
HARA,0.858,0.918,0.904,0.639,0.789,0.943,0.756,0.698,0.318,0.656,0.558,0.439,0.226,0.9,1.19,0.844,1.01,0.444
HCC-15,0.74,0.805,0.959,0.75,0.644,0.734,0.521,0.655,0.778,0.68,0.683,0.695,0.669,0.791,0.767,0.684,0.637,0.589

Cell Line,relative viability (AZD5582 + Foretinib; first compound 0.001581 µM),relative viability (AZD5582 + Foretinib; first compound 0.005 µM),relative viability (AZD5582 + Foretinib; first compound 0.01581 µM),relative viability (AZD5582 + Foretinib; first compound 0.05 µM),relative viability (AZD5582 + Lapatinib; first compound 0.001581 µM),relative viability (AZD5582 + Lapatinib; first compound 0.005 µM),relative viability (AZD5582 + Lapatinib; first compound 0.01581 µM),relative viability (AZD5582 + Lapatinib; first compound 0.05 µM),relative viability (Temozolomide + OSI-027; first compound 0.2 µM),relative viability (Temozolomide + OSI-027; first compound 0.6325 µM),relative viability (Temozolomide + OSI-027; first compound 2 µM),relative viability (Temozolomide + OSI-027; first compound 6.325 µM),relative viability (Temozolomide + OSI-027; first compound 20 µM),relative viability (Temozolomide + Olaparib; first compound 0.2 µM),relative viability (Temozolomide + Olaparib; first compound 0.6325 µM),relative viability (Temozolomide + Olaparib; first compound 2 µM),relative viability (Temozolomide + Olaparib; first compound 6.325 µM),relative viability (Temozolomide + Olaparib; first compound 20 µM)
HCC-44,–,–,–,–,0.754,0.916,1.11,0.467,0.682,0.425,0.477,0.494,0.477,0.975,1.02,0.949,1.02,0.854
HCC-78,0.537,0.624,0.548,0.62,0.703,0.794,0.603,0.198,0.347,0.349,0.362,0.383,0.349,0.676,0.778,0.855,–,0.471
HCC-366,0.947,0.978,–,1,0.936,1.05,0.961,1.08,0.865,0.856,1.03,0.879,0.921,0.413,0.344,0.318,0.311,0.17
HCC-827,0.936,1.06,1.04,0.999,0.222,0.183,0.179,0.163,0.45,0.756,0.8,0.73,0.133,0.749,0.645,0.665,0.432,0.107
HOP-62,1.01,1.11,1.06,1.05,0.748,1.06,1.02,0.958,1.06,0.854,0.846,0.773,0.908,0.407,0.31,0.429,0.277,0.129
IA-LM,0.96,0.938,1.21,0.994,0.623,0.725,0.809,0.584,–,–,–,–,–,0.908,0.744,0.86,0.759,0.694
LC-2-ad,0.933,1.16,0.829,0.923,0.966,1.07,0.888,0.904,0.782,0.917,0.926,0.825,0.737,0.671,0.72,0.696,0.591,0.468
LCLC-103H,0.699,0.725,0.681,0.581,–,–,–,–,0.454,0.416,0.481,0.448,0.485,0.82,0.79,0.85,0.731,0.617
NCI-H441,0.847,1.03,–,0.883,–,–,–,–,0.597,0.85,0.846,0.523,0.651,0.7,0.569,0.603,0.527,0.337
NCI-H522,–,–,–,–,–,–,–,–,0.723,0.729,0.778,0.665,0.648,0.64,0.543,0.762,0.574,0.469
NCI-H1299,1.05,1.11,1.04,1.03,0.846,0.883,0.971,0.812,–,–,–,–,–,1,0.99,0.957,0.923,0.967
NCI-H1563,0.897,0.958,0.894,0.924,0.909,1.15,0.788,1.64,0.781,0.817,0.77,0.789,0.796,–,–,–,–,–
NCI-H1623,0.831,0.971,0.917,0.888,–,–,–,–,–,0.462,0.471,0.388,0.297,–,–,–,–,–
NCI-H1648,–,–,–,–,–,–,–,–,–,0.23,0.262,0.235,0.274,–,1.09,0.654,0.826,0.468
NCI-H1792,–,–,–,–,0.862,0.935,0.798,1.01,0.552,0.739,0.689,0.681,0.736,0.31,0.388,0.251,0.361,0.31
NCI-H2342,1.04,1.11,1.07,1.27,–,–,–,–,0.544,0.665,0.618,0.59,0.678,0.344,0.411,0.454,0.386,0.36
SW 900,0.866,0.666,0.895,0.451,–,–,–,–,0.569,0.618,0.47,0.5,0.744,1.02,1.05,0.871,0.946,0.776
